{
  "source": "paper PMC8058733",
  "about": "“A pain killer without analgesic tolerance designed by co-targeting PSD-95-nNOS interaction and α2-containning GABAARs” (Theranostics, 2021)",
  "key": {"[1]": {"system": "basic pain threshold under normal conditions", "experiment": "Mechanical nociceptive thresholds in normal rats", "type": "in vivo, rat", "settings": "ZL006-05 90 mg/kg/d, i.g., × 11 d, 2 h after administration", "method": "For rats, the threshold for 50% paw withdrawal (50% PWT) response to mechanical stimulus was assessed through a dynamic plantar apparatus (Ugo Basile, Italy). The 50% PWT refers to that the probability of paw withdrawal response to repeated mechanical stimulus is 50%. Rats were placed individually in a plastic cage (17 × 15 × 15 cm) with a wire mesh bottom which allowed full access to the paws. Behavioral accommodation was allowed for 15-20 min until cage exploration and major grooming activities ceased. A maximal cut-off of 50g/50s was set to prevent tissue damage. To record the PWT in response to mechanical stimulus, each rat was measured five times with a 5-min interval, and the mean value was recorded after excluding maximal and minimum values. The experimental procedures were performed in a double-blind manner."}, "α2β3γ2 GABAARs": {"biological_target": "T1, α2β3γ2 GABAARs (Homo sapiens, UniProt P18507+P28472+P47869)", "T1 construct": "Shanghai Genechem Co.,Ltd (γ2 plasmid); host or cells: HEK293", "T1 sequence (P47869 29-451)": "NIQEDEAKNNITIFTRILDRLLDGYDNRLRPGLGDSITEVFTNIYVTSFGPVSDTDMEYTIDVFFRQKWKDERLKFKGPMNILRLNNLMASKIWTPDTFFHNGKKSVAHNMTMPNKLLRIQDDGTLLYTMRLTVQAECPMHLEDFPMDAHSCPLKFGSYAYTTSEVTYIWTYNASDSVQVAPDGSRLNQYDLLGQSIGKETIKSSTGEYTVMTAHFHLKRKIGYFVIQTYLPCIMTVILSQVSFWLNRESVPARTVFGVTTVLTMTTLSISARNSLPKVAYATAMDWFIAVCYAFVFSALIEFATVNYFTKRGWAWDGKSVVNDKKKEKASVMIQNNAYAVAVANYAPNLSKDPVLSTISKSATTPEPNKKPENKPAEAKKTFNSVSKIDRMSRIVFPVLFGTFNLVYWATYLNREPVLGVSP", "T1 sequence (P28472 26-473)": "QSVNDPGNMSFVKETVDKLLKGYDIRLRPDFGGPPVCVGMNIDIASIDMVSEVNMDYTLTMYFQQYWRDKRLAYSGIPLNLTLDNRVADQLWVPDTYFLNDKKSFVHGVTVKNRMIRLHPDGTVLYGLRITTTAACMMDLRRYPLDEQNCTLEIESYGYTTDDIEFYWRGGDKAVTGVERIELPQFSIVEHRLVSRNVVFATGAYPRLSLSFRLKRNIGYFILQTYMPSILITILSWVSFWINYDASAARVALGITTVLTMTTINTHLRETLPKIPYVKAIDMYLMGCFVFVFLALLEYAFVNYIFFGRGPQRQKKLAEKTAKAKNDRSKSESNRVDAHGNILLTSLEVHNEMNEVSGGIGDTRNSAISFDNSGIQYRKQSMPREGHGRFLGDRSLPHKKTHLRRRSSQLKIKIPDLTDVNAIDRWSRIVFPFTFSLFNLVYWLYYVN", "T1 sequence (P18507 40-475)": "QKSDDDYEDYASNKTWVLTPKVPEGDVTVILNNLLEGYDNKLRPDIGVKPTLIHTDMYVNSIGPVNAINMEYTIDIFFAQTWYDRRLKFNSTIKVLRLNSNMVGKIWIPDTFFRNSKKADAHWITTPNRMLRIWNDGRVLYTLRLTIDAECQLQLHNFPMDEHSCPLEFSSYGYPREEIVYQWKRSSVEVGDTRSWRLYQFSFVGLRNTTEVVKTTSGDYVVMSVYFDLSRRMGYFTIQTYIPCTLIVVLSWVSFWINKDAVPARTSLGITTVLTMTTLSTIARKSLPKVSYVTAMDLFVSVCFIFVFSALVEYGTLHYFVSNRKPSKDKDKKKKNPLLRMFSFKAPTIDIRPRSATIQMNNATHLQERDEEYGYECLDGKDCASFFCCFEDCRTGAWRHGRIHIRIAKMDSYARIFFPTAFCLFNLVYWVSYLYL", "experiment": "Potentiation of GABA-evoked currents, whole-cell patch-clamp in HEK293 cells transiently expressing recombinant GABAARs", "type": "cell-based", "settings": "α2β3γ2", "method": "(§1) The affinities of drugs for α1, α2, α3 and α5 subunits were studied in the HEK293 cells (from FuHeng Biology, Shanghai, China) transiently expressing recombinant GABAARs (α1β2γ2, α2β3γ2, α3β3γ2 and α5β2γ2) as described previously. Briefly, the HEK293 cells were cultured in MEM medium supplemented with 10% FBS (fetal bovine serum, Gibico), 1% L-glutamine (Gibco) and 1% mycillin (Gibco). Before transfection, the cells were subcultured onto a 3.5cm dish at the ratio of 1:2. Then, the plasmids of α1/α2/α3/α5 (Origene), β2/β3 (Origene) and γ2 (Shanghai Genechem Co.,Ltd ) (5μg total DNA, ratio 1:1:2) were transfected using Fugene®HD transfection reagent (Promega). The γ2 subunit contained GFP from IRES (internal ribosomal entry site) and was used as a marker of the successful transfection. Cells were used for electrophysiology recording 18-36 hours after transfection.\n(§2) Electrophysiology recordings from HEK293 cells were performed as described previously. Briefly, whole-cell patch-clamp recordings of GABA-evoked currents were made at 30 °C with the holding potential of -60 mV. The internal solution (solution in recording electrodes) contained (in mM): 120 CsCl, 10 EGTA, 10 HEPES, 4 MgCl2, 0.5 GTP, 2 ATP and pH was adjusted to 7.4 with CsOH and the external solution contained (in mM): 150 NaCl, 10 KCl, 2 CaCl2, 1 MgCl, 10 HEPES, 10 Glucose and pH was adjusted to 7.4 with NaOH. ACSF was bubbled continuously with carbogen (95%O2 and 5%CO2). For the recording of GABA-evoked currents, the slides were transferred to a recording chamber, which was perfused with ACSF at a rate of 4 ml/min. The cells were viewed under upright microscopy (Olympus), and GFP-positive cells were selected to record the currents. The interval time between each different dose of GABA was controlled, 3 to 5 minutes to avoid the desensitization of GABAARs."}, "α1β2γ2 GABAARs": {"biological_target": "T2, α1β2γ2 GABAARs (Homo sapiens, UniProt P14867+P18507+P47870)", "T2 construct": "Shanghai Genechem Co.,Ltd (γ2 plasmid); host or cells: HEK293", "T2 sequence (P14867 28-456)": "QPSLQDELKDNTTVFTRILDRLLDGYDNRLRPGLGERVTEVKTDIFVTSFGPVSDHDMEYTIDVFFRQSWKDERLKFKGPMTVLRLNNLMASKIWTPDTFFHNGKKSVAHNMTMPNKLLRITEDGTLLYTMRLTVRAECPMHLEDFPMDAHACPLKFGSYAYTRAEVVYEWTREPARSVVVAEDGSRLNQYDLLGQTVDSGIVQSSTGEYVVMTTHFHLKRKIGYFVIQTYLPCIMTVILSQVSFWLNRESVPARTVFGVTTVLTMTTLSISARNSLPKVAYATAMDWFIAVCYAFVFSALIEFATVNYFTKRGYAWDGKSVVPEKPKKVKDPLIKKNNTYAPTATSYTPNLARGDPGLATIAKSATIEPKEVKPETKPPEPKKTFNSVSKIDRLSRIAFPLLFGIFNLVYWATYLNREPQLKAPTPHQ", "T2 sequence (P47870 25-512 limits assumed)": "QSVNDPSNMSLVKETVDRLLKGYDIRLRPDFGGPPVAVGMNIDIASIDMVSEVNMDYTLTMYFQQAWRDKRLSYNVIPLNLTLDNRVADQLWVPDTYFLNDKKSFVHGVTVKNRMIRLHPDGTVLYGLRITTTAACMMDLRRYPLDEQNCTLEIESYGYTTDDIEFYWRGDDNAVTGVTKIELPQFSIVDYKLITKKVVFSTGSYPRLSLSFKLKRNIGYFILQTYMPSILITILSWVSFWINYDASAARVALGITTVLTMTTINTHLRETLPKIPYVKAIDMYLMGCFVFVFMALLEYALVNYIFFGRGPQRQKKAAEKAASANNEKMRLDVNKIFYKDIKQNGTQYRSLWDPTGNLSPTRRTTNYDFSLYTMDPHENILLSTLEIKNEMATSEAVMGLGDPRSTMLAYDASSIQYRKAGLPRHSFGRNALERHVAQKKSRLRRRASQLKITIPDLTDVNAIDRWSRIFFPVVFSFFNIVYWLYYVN", "T2 sequence (P18507 40-475)": "as the sequence (P18507 40-475) above", "experiment": "Potentiation of GABA-evoked currents, whole-cell patch-clamp in HEK293 cells transiently expressing recombinant GABAARs", "type": "cell-based", "settings": "α1β2γ2", "method": "as §1, §2"}, "α3β3γ2 GABAARs": {"biological_target": "T3, α3β3γ2 GABAARs (Homo sapiens, UniProt P18507+P28472+P34903)", "T3 construct": "Shanghai Genechem Co.,Ltd (γ2 plasmid); host or cells: HEK293", "T3 sequence (P34903 29-492)": "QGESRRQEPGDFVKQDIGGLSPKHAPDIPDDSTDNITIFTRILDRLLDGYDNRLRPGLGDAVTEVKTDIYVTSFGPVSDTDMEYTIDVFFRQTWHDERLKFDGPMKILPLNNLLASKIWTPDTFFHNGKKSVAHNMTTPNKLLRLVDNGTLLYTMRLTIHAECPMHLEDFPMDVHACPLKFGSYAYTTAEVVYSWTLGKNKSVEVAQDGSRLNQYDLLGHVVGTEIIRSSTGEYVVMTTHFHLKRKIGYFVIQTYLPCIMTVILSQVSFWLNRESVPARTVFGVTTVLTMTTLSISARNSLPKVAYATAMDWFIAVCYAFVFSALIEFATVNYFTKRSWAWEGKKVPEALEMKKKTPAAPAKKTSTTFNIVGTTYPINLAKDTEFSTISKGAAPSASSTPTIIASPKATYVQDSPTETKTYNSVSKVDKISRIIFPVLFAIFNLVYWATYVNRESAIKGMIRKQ", "T3 sequence (P28472 26-473)": "as the sequence (P28472 26-473) above", "T3 sequence (P18507 40-475)": "as the sequence (P18507 40-475) above", "experiment": "Potentiation of GABA-evoked currents, whole-cell patch-clamp in HEK293 cells transiently expressing recombinant GABAARs", "type": "cell-based", "settings": "α3β3γ2", "method": "as §1, §2"}, "[2]": {"system": "laminae I excitatory neurons in the SDH", "experiment": "mIPSCs/mEPSCs recordings from acute spinal slices of chronically treated rats", "type": "in vivo, rat", "settings": "rats, ZL006-05 0.3 mg/d intrathecal infusion ×11 d", "excerpt": "Osmotic minipumps (models 1004 for mouse and 2ML4 for rat; Alzet) and intrathecal cannulas (0.61 mm outer diameter and 0.28 mm inner diameter for mouse, 0.99 mm outer diameter and 0.58 mm inner diameter for rat) were filled with a solution of PBS. Cannulas were inserted into the subarachnoid space through the space between the L5 and L6 vertebrae and the tip of the catheter was implanted at the L5 spinal segmental level.\nAll solutions were bubbled with 95% O2 -5% CO2.\nFor mPSCs measurements, whole-cell recordings were made from putative excitatory neurons in superficial dorsal horn using low-resistance pipettes (4-8 MΩ). Before mPSCs measurements, excitatory neurons were distinguished from inhibitory neurons by firing pattern analysis according to the established relationship between neuronal firing pattern and its neurotransmitter phenotype, [32]-[34] For mEPSCs measurement, the membrane potential was held at -60 mV. […] Tetrodotoxin (0.5 μM) and bicuculline (20 μM) were added to block action potentials and GABAA receptor-mediated currents respectively. For mIPSCs measurement, the membrane potential was held at -70 mV, microelectrodes were filled with internal pipette solution containing CsCl 140, HEPES 10.0, MgATP 4.0, NaGTP 3.0, EGTA 1.0, MgCl2 1.0, CaCl2 0.3 (in mM). […]. […] Each recording lasts more than 5 min. Data were analyzed using Mini software. Up to 120 events from each neuron were selected at a fixed sampling interval to generate cumulative probability."}, "α5β3γ2 GABAARs": {"system": "α5β3γ2 GABAARs", "experiment": "Potentiation of GABA-evoked currents, whole-cell patch-clamp in HEK293 cells transiently expressing recombinant GABAARs", "type": "cell-based"}},
  "note": "Entries after “also recorded” stand apart in the source; their conditions may differ.",
  "data": [
    {"smiles": "CC1(C)C2CCC1(C)C(OC(=O)c1ccc(NCc3cc(Cl)cc(Cl)c3O)cc1O)C2", "note": "(stereo not shown) [ZL006-05]", "values": [
      {"measurement": "Basic mechanical nociceptive threshold", "setting": "[1]", "value": "did not change the basic threshold"},
      {"measurement": "Effect on α2-containing GABAAR (in words)", "setting": "α2β3γ2 GABAARs", "value": "very high affinity to α2-containing GABAAR; also recorded: very high efficacy and potency on α2GABAARs"},
      {"measurement": "Effect on GABA-evoked currents of α1-containing GABAAR (in words)", "setting": "α1β2γ2 GABAARs", "value": "does not potentiate α1GABAAR"},
      {"measurement": "Effect on α3GABAAR (in words)", "setting": "α3β3γ2 GABAARs", "value": "low efficacy on α3GABAAR"},
      {"measurement": "mEPSCs", "setting": "[2]", "value": "without affecting mEPSCs"},
      {"measurement": "mIPSCs", "setting": "[2]", "value": "significantly increased mIPSCs amplitude"},
      {"measurement": "Effect on α5GABAAR (in words)", "setting": "α5β3γ2 GABAARs", "value": "low efficacy on α3GABAAR and α5GABAAR"}
    ]}
  ]
}
